According to patent US20050032784A1, “Combination drug therapy for treating hypertension” (University of Florida Research Foundation, Inc., priority 2003, published 2005):

Experiments:
[1] = system: hypertensive patients randomized to the calcium antagonist strategy; assay: INVEST subanalysis: BP reduction by addition of HCTZ to verapamil SR/trandolapril; assay type: in vivo
Procedure: Subanalysis Design: INVEST afforded an opportunity to analyze unique and specific combinations of antihypertensive drugs due to the data accumulated for prescription date, drug, regimen, and dose. One subanalysis was performed to evaluate the incremental benefit of BP reduction by the addition of HCTZ to various dose combinations of verapamil SR and trandolapril in patients randomized to the calcium antagonist strategy. […]
Patients who received the verapamil SR/trandolapril combination as their first randomized drug prescription in INVEST, and who received no other drug prescription or gap in medication until their first HCTZ prescription added to the initial verapamil SR/trandolapril combination dose, were selected for this subgroup analysis. […] Summary statistics for change from baseline for SBP and DBP to the last observation at each dose level for both the verapamil SR/trandolapril dual combination and the verapamil SR/trandolapril/HCTZ triple combination were analyzed. […] In this subanalysis the incremental effect of HCTZ on BP reduction was evaluated for any dose of HCTZ.

[2] = system: CAD patients with hypertension; assay: INVEST trial: new diagnosis of diabetes; assay type: in vivo; details: for HR of developing diabetes: vs NCAS not taking trandolapril or hydrochlorothiazide; for Effect of add-on medication on risk of diabetes: preliminary analyses adjusted for 5 baseline covariates and average daily dose
Excerpt: The primary outcome was the first occurrence of death (all-cause), nonfatal MI, or nonfatal stroke by intention-to-treat analysis. The MI and stroke definitions are detailed on the INVEST Web site. These 3 components individually were the main secondary outcomes. Additional outcomes included time to most serious event (ranked from death as most serious, to MI, to stroke as least serious), cardiovascular death (definite or presumed), angina, cardiovascular hospitalizations, blood pressure control, cancer, Alzheimer disease, Parkinson disease, and gastrointestinal tract bleeding. Shortly after the study started, new information became available on the potential for ACE inhibitors to prevent or delay the onset of diabetes. Accordingly, at the recommendation of the independent data safety and monitoring committee, new diagnosis of diabetes was added as an outcome early in the recruitment phase of the study.
Of the 8098 CAS patients without diabetes at entry, 569 (7.03%) were diagnosed as having diabetes during follow-up. Of the 8078 NCAS patients without diabetes at entry, 665 (8.23%) were diagnosed as having diabetes during follow-up (RR, 0.85; 95% CI, 0.77-0.95). Patients in the CAS group were also less likely to die or develop diabetes compared with patients in the NCAS group (1050 [12.97%] vs 1177 [14.57%]; RR, 0.89; 95% CI, 0.82-0.96) and less likely to have an event in the primary outcome cluster or develop diabetes (1185 [14.63%] vs 1313 [16.25%]; RR, 0.90; 95% CI, 0.84-0.97). To explore possible explanations for reduced risk of diabetes, we conducted preliminary analyses adjusting for the 5 pre-specified baseline covariates (age, race, sex, prior MI, and prior heart failure) and included factors for average daily dose of add-on medication (trandolapril and/or hydrochlorothiazide). […] A 2-mg dose of trandolapril was associated with a HR of 0.86 (95% CI, 0.74-1.00) and a 4-mg dose was associated with a HR of 0.77 (95% CI, 0.62-0.96). In the NCAS group, a 2-mg dose of trandolapril was associated with a HR of 0.99 (95% CI, 0.90-1.08) and a 4-mg dose was associated with a HR of 0.98 (95% CI, 0.82-1.18). […] Compared with those in the NCAS group not taking either trandolapril or hydrochlorothiazide, the addition of 12.5 mg of hydrochlorothiazide was associated with a HR of 1.17 (95% CI, 1.09-1.25) and 25 mg of hydrochlorothiazide was associated with a HR of 1.36 (95% CI, 1.18-1.57).

[3] = Group 1, added to verapamil SR/trandolapril 180/2 mg
[4] = Group 2, added to verapamil SR/trandolapril 240/2 mg
[5] = Group 3, added to verapamil SR/trandolapril 240/4 mg

Structure (SMILES) | Decrease of mean diastolic BP with the addition of HCTZ [1, 3] [mm Hg] | Decrease of mean systolic BP after the addition of HCTZ [1, 3] [mm Hg] | Decrease of mean diastolic BP with the addition of HCTZ [1, 4] [mm Hg] | Decrease of mean systolic BP after the addition of HCTZ [1, 4] [mm Hg] | Decrease of mean diastolic BP with the addition of HCTZ [1, 5] [mm Hg] | Decrease of mean systolic BP after the addition of HCTZ [1, 5] [mm Hg] | Incremental BP reduction with addition of HCTZ ([1]; each verapamil SR/trandolapril combination group, listed as HCTZ) | HR of developing diabetes ([2]; 25 mg, CAS group) | HR of developing diabetes ([2]; 25 mg, NCAS group) | HR of developing diabetes ([2]; addition of 12.5 mg, CAS group) | HR of developing diabetes ([2]; addition of 12.5 mg, NCAS group) | Effect of add-on medication on risk of diabetes [2] | HR of developing diabetes ([2]; 2-mg dose, CAS group) | HR of developing diabetes ([2]; 2-mg dose, NCAS group) | HR of developing diabetes ([2]; 4-mg dose, CAS group) | HR of developing diabetes ([2]; 4-mg dose, NCAS group)
NS(=O)(=O)c1cc2c(cc1Cl)NCNS2(=O)=O [hydrochlorothiazide] | 1.1 | 7.1 | 4.2 | 6.5 | 2.3 | 3.2 | clinically significant, incremental BP reduction | 1.28 | 1.36 | 1.11 | 1.17 | non-statistically significant increased risk of diabetes | – | – | – | –
CCOC(=O)[C@H](CCc1ccccc1)N[C@@H](C)C(=O)N1[C@H](C(=O)O)C[C@H]2CCCC[C@@H]21 [trandolapril] | – | – | – | – | – | – | – | – | – | – | – | appeared to confer a protective effect in the CAS group | 0.86 | 0.99 | 0.77 | 0.98
